Test results published in US12325708B2, “Adenosine 2 receptor antagonists” (Nektar Therapeutics, priority 2019, dated 2025).
Like-named read-outs stand apart in the source and are kept apart here.

Experiments:
[1] = Plasma pharmacokinetic parameters following intravenous (IV) or oral (PO) administration in rats; assay type: in vivo, Sprague-Dawley rats; conditions: rat; for AUC / clearance / bioavailability / AUC(0-inf) / AUC(0-t) / MRT last / Cmax / Tmax / Vd: male, Sprague-Dawley, plasma; for Cmax: read-out: Cmax; for Tmax: read-out: Tmax; for Vd: read-out: Vss obs; for Total clearance as % liver blood flow: IV; for F: PO 2.5 mg/kg vs IV 0.5 mg/kg
Description: (§1) Adult male Sprague-Dawley rats (230-250 g) (Charles River Labs, Hollister, CA) were utilized for the study. There were 2 rats/group. All animals were food fasted overnight with water provided ad libitum at all times. Compounds 1, 4, 14 and 19 were synthesized as described in Examples 2, 17, 7, and 12, respectively, and formulated in injectable water.
(§2) The morning of each dosing, individual doses were calculated based on current body weights on the day of dosing. The jugular vein cannula (JVC) and the carotid artery cannula (CAC) were externalized, flushed with HEP/saline (10 IU/mL HEP/mL saline), plugged, and labeled to identify the jugular vein and the carotid artery. The IV group animals were dosed at 0.5 mg/kg of Compound 1, 4, 14 or 19, respectively, intravenously via the jugular vein, while the PO dose was administered 2.5 mg/kg of Compound 1, 4, 14 or 19, respectively, orally via gavage. For the IV group, immediately following the dose of test article, the dead volume of the catheter was flushed with 0.9% saline to ensure the animals received the full dose.
Approximately 0.2 mL of blood was collected per time point from JVC. Blood samples were collected at 2 (IV group only), 5, 15, 30, 60, 120, 240, 360, 420 (Compound 19 only), 480, 720 (Compound 19 only), and 1440 minutes via the CAC and transferred immediately into K2EDTA coated tubes pre-loaded 2 μl with quenching cocktail and placed on wet ice. The samples were centrifuged within 30 min after collection at 10,000 RPM for 5 minutes and the resulting plasma was separated. Plasma was transferred into microfuge tubes and placed on dry ice immediately. The plasma samples were stored at approximately −70° C. until bioanalysis.
Plasma samples were extracted by protein precipitation with acetonitrile containing 0.1% formic acid and doxepin for Compound 1 (available from Sigma-Aldrich) or SCH58261 for Compounds 4, 14 and 19 (available from Sigma-Aldrich) as an internal standard. Following vortex and centrifugation, supernatant was diluted 3-fold with water containing 0.1% formic acid and analyzed by LC-MS/MS.
Pharmacokinetic parameters (PK) were determined by non-compartmental analysis (NCA) using Phoenix 64 WinNonlin (version 8) and Dotmatics (version 5.0). Nominal doses and time points were used for the analysis.
The following PK parameters were estimated using plasma concentration-time profile of each animal with the results presented in Table 3: • AUCinf Area under the concentration-time from zero to time infinity • AUClast Area under the concentration-time from zero to time of last concentration value • F Bioavailability • CL Total body clearance • Cmax Maximum (peak) concentration • MRTlast Mean residence time to last observable concentration • Tmax Time to reach maximum or peak concentration following administration • Vss Volume of distribution at steady state
as §1, with “Compound 1 was” for “Compounds 1, 4, 14 and 19 were”, “Example 2” for “Examples 2, 17, 7, and 12, respectively,”
as §2, with “1” for “1, 4, 14 or 19, respectively,”
Approximately 0.2 mL of blood was collected per time point from JVC. […]

[2] = Brain-to-plasma ratio (B/P) after administration; assay type: in vivo, Sprague-Dawley rats; conditions: Sprague-Dawley, rat, brain-to-plasma ratio at 1 h
Excerpt: A similar unexpected result was obtained when the phenyl ring present on Compound 1 was replaced with a halogen substituted pyridine. The halogen was previously introduced on the phenyl ring with the aim of blocking a possible metabolic soft-spot, with similar results observed as for Compound 1 in terms of exposure, clearance and bioavailability (Compound 10 and Compound 15). The substituted pyridine ring was designed to modulate the lipophilicity and polar surface area, as well as to address metabolic soft-spot concerns. Clearance and bioavailability parameters remain similar between substituted phenyl and pyridine (Compound 4 and Compound 14) analogs, which span a range in cLogP of 2.7-3.2. It was therefore surprising the significant improvement in exposure and clearance observed for the more lipophilic Compound 19. […] A compound is commonly deemed to be a brain penetrant if the brain-to-blood/plasma concentration ratio (B/P) is greater than 0.04 using methods as known in the art (Schaffer, Annual Reports in Medicinal Chemistry, 45:55-70, 2010).
Plasma pharmacokinetic parameters were determined following oral (PO) administration of further compounds essentially as described in Example 28 with the results shown in Table 6.

A2A receptor = target: T1, A2A receptor (Homo sapiens, UniProt P29274); test: Radioligand receptor binding assay, A2A receptor; conditions: cell membranes overexpressing A2A receptor, read-out: Potency Ki A2A
T1 construct: purchased
T1 sequence (P29274 whole entry): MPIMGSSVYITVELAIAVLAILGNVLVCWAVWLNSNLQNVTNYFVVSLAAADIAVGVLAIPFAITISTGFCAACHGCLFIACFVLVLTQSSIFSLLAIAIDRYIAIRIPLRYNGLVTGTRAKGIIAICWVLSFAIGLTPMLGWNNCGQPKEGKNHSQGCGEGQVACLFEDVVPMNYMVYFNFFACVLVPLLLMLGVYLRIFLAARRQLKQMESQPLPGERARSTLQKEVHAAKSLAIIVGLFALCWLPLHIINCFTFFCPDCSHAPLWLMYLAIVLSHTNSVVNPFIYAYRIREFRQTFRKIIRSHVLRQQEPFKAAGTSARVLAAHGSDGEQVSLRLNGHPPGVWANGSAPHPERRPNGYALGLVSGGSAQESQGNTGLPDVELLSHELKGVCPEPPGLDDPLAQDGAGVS
Description: (§3) Using conventional receptor binding assay techniques, Compounds 1-24 were assayed to determine binding activity at the A2A, A1, and A3 receptors with the results shown in Table 7.
(§4) Receptor binding affinity of Compounds 1-24 was measured using radioligand binding assays using commercially obtained cell membranes prepared from cell lines overexpressing the A2A, A1, or A3 receptors. Briefly, cell membrane preparations from cells expressing the specific receptor were mixed with the appropriate [^3H]-labeled tracer for the specific receptor and the test compound or a known inhibitor of receptor-ligand binding. Following 60 min incubation at room temperature to allow receptor-ligand complex formation, the complexes were collected by filtration, washed with 50 mM Tris HCl (pH 7.5) to remove radioligand that was not receptor-bound, and the remaining radioactivity determined by liquid scintillation counting. Specific radioligand binding was calculated for each test compound concentration and IC50 values were determined by non-linear, regression analysis. Inhibition constants (Ki) were calculated using the equation of Cheng and Prusoff using the observed IC50 of the tested compound, the concentration of radioligand employed in the assay and the experimentally determined values for the Kd of the ligand.

A1 receptor = target: T2, A1 receptor (Homo sapiens, UniProt P30542); test: Radioligand receptor binding assay, A1 receptor; conditions: cell membranes overexpressing A1 receptor, read-out: Potency Ki A1
T2 construct: purchased
T2 sequence (P30542 1-326): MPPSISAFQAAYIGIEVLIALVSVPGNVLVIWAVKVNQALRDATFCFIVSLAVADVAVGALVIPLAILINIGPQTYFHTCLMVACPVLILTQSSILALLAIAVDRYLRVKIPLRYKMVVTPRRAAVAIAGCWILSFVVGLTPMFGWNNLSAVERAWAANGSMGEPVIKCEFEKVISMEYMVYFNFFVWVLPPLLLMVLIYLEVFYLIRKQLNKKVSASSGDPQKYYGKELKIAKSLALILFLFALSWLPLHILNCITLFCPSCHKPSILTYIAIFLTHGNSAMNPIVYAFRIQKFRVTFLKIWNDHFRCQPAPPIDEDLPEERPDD
Description: as §3, §4

[3] = 2.5 mg/kg, Table 6, oral (PO) administration essentially as described in Example 28
[4] = intravenous, 0.5 mg/kg, Table 6, essentially as described in Example 28
[5] = po, 2.5 mg/kg, Table 6, oral (PO) administration essentially as described in Example 28
[6] = intravenous, 0.5 mg/kg, Table 2 summary of Example 27, values marked 1 are the average of experiments
[7] = iv, 0.5 mg/kg, IV 0.5 mg/kg, injectable water
[8] = oral, 2.5 mg/kg, Table 2 summary of Example 27, values marked 1 are the average of experiments
[9] = po, 2.5 mg/kg, PO 2.5 mg/kg via gavage, injectable water

| AUC [1, 3] [ng·h/mL] | clearance [1, 4] [mL/min/kg] | bioavailability [1, 5] [%] | Kp at 1 h ([2]; oral, 2.5 mg/kg, Table 6) | Ki (A2A receptor) [nM] | Ki (A1 receptor) [µM] | Compound | clearance [1, 6] [mL/min/kg] | AUC(0-inf) [1, 7] [ng·h/mL] | AUC(0-t) [1, 7] [ng·h/mL] | MRT last [1, 7] [h] | clearance [1, 7] [mL/min/kg] | Vd [1, 7] [L/kg] | AUC [1, 8] [ng·h/mL] | bioavailability [1, 8] [%] | AUC(0-inf) [1, 9] [ng·h/mL] | AUC(0-t) [1, 9] [ng·h/mL] | MRT last [1, 9] [h] | Cmax [1, 9] [ng/mL] | Tmax [1, 9] [h] | Total clearance as % liver blood flow [1] [% liver blood flow] | further results |
| --- | --- | --- | --- | --- | --- | --- | --- | --- | --- | --- | --- | --- | --- | --- | --- | --- | --- | --- | --- | --- | --- |
| 1020 | 24 | 60 | 0.07 | 13 | > 4 | [2H]C([2H])([2H])OCCOc1ccc(N2CCN(CCN(C)c3cc4nc(-c5ncco5)nn4c(N)n3)CC2)cc1 [Compound 7, N^7-methyl-N^7-{2-[4-(4-{2-[(^2H3)methyloxy]ethoxy}phenyl)piperazin-1-yl]ethyl}-2-(1,3-oxazol-2-yl)[1,2,4]triazolo[1,5-c]pyrimidine-5,7-diamine] |  |  |  |  |  |  |  |  |  |  |  |  |  |  |  |
| 1170 | 17 | 50 | 0.05 | 6 | > 100 | [2H]C([2H])([2H])OC([2H])([2H])C([2H])([2H])Oc1ccc(N2C([2H])([2H])C([2H])([2H])N(C([2H])([2H])C([2H])([2H])N(c3cc4nc(-c5ncco5)nn4c(N)n3)C([2H])([2H])[2H])C([2H])([2H])C2([2H])[2H])cc1 [Compound 20, N^7-(^2H3)methyl-N^7-[2-{4-[4-({2-[(^2H3)methyloxy](^2H4)ethyl}oxy)phenyl](^2H8)piperazin-1-yl}(^2H4)ethyl]-2-(1,3-oxazol-2-yl)[1,2,4]triazolo[1,5-c]pyrimidine-5,7-diamine] |  |  |  |  |  |  |  |  |  |  |  |  |  |  |  |
| 1200 | 22 | 63 | 0.04 | 4 | > 4 | [2H]C([2H])([2H])OCCOc1ccc(N2CCN(CCN(c3cc4nc(-c5ncco5)nn4c(N)n3)C([2H])([2H])[2H])CC2)cc1 [Compound 8, N^7-(^2H3)methyl-N^7-{2-[4-(4-{2-[(^2H3)methyloxy]ethoxy}phenyl)piperazin-1-yl]ethyl}-2-(1,3-oxazol-2-yl)[1,2,4]triazolo[1,5-c]pyrimidine-5,7-diamine] |  |  |  |  |  |  |  |  |  |  |  |  |  |  |  |
| 708 | 30 | 63 |  | 2.3 | 16.9 | [2H]C([2H])([2H])OCCOc1cnc(N2CCN(CCN(C)c3cc4nc(-c5ncco5)nn4c(N)n3)CC2)c(F)c1 [Compound 11, N^7-{2-[4-(3-fluoro-5-{2-[(^2H3)methyloxy]ethoxy}pyridin-2-yl)piperazin-1-yl]ethyl}-N^7-methyl-2-(1,3-oxazol-2-yl)[1,2,4]triazolo[1,5-c]pyrimidine-5,7-diamine] |  |  |  |  |  |  |  |  |  |  |  |  |  |  |  |

| Compound | AUC [1, 3] [ng·h/mL] | clearance [1, 4] [mL/min/kg] | bioavailability [1, 5] [%] | Kp at 1 h ([2]; oral, 2.5 mg/kg, Table 6) | Ki (A2A receptor) [nM] | Ki (A1 receptor) [µM] | clearance [1, 6] [mL/min/kg] | AUC(0-inf) [1, 7] [ng·h/mL] | AUC(0-t) [1, 7] [ng·h/mL] | MRT last [1, 7] [h] | clearance [1, 7] [mL/min/kg] | Vd [1, 7] [L/kg] | AUC [1, 8] [ng·h/mL] | bioavailability [1, 8] [%] | AUC(0-inf) [1, 9] [ng·h/mL] | AUC(0-t) [1, 9] [ng·h/mL] | MRT last [1, 9] [h] | Cmax [1, 9] [ng/mL] | Tmax [1, 9] [h] | Total clearance as % liver blood flow [1] [% liver blood flow] | further results |
| --- | --- | --- | --- | --- | --- | --- | --- | --- | --- | --- | --- | --- | --- | --- | --- | --- | --- | --- | --- | --- | --- |
| COCCOc1cnc(N2CCN(CCN(C)c3cc4nc(-c5ncco5)nn4c(N)n3)CC2)c(C(F)(F)F)c1 [Compound 19, N^7-(2-{4-[5-(2-methoxyethoxy)-3-(trifluoromethyl)pyridin-2-yl]piperazin-1-yl}ethyl)-N^7-methyl-2-(1,3-oxazol-2-yl)[1,2,4]triazolo[1,5-c]pyrimidine-5,7-diamine] |  |  |  |  | 4 | 16 | 7 | 1230 | 1220 | 1.48 | 6.85 | 0.635 | 4980 | 83 | 5050 | 4980 | 2.65 | 1300 | 1.25 | ~10 | Cmax [1, 7]: 1020 ng/mL; Tmax [1, 7]: 0.033 h; MRTlast ([1]; IV 0.5 mg/kg, injectable water, 0.5 mg/kg): 1.4825 h; CL ([1]; PO 2.5 mg/kg row of Table 3): 9.05 mL/min/kg; F [1]: 82.7%; Kp at 1 h ([2]; Table 2): 0.01 |
| COCCOc1cnc(N2CCN(CCN(C)c3cc4nc(-c5ncco5)nn4c(N)n3)CC2)c(Cl)c1 [Compound 14, N^7-(2-{4-[3-chloro-5-(2-methoxyethoxy)pyridin-2-yl]piperazin-1-yl}ethyl)-N^7-methyl-2-(1,3-oxazol-2-yl)[1,2,4]triazolo[1,5-c]pyrimidine-5,7-diamine] |  |  |  |  | 4 | 15 | 17 | 526 | 523 | 0.977 | 16.6 | 1.02 | 1480 | 56 | 1480 | 1370 | 2.43 | 373 | 1 | ~28 | F [1]: 56.1%; Kp at 1 h ([2]; Table 2): 0.025 |
